Measurements as given in publication PMC2709368 (The Journal of Biological Chemistry, 2009).

Biological target: T1, prolectin (Homo sapiens, UniProt Q6ZS10)
T1 sequence (Q6ZS10 194-378 limits assumed): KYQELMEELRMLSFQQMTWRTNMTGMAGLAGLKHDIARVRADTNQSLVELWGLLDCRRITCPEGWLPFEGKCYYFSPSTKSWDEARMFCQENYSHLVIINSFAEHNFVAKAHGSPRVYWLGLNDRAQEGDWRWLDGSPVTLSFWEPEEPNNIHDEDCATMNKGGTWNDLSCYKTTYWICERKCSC
Assay: solid-phase competition binding, […]-Man-BSA reporter
Conditions: competitive; immobilised extracellular domain; Ca2+-dependent site

Compound: CO[C@H]1O[C@H](CO)[C@@H](O)[C@H](O)[C@H]1O [αMe-Glc]
- Relative KI: 3.2 ± 0.1 relative to KI of αMe-Man

Compound: CO[C@H]1O[C@H](CO)[C@H](O)[C@H](O)[C@H]1O [αMe-Gal]
- Relative KI: > 30 relative to KI of αMe-Man

Compound: C[C@@H]1OC(O)[C@@H](O)[C@H](O)[C@@H]1O (stereo partly shown) [Fuc]
- Relative KI: 1.1 ± 0.1 relative to KI of αMe-Man

Compound: CC(=O)N[C@H]1C(O)O[C@H](CO)[C@@H](O[C@@H]2O[C@H](CO)[C@H](O)[C@H](O)[C@H]2O)[C@@H]1O[C@@H]1O[C@@H](C)[C@@H](O)[C@@H](O)[C@@H]1O (stereo partly shown) [Le^x]
- Relative KI: 0.72 ± 0.08 relative to KI of αMe-Man

Compound: CC(=O)N[C@H]1C(O)O[C@H](CO)[C@@H](O)[C@@H]1O (stereo partly shown) [GlcNAc]
- Relative KI: 1.2 ± 0.1 relative to KI of αMe-Man

Compound: OC[C@H]1OC(O)[C@@H](O)[C@@H](O)[C@@H]1O (stereo partly shown) [Man]
- Relative KI: 1.2 ± 0.1 relative to KI of αMe-Man

Compound: CC(=O)N[C@H]1C(O)O[C@H](CO)[C@@H](O[C@@H]2O[C@@H](C)[C@@H](O)[C@@H](O)[C@@H]2O)[C@@H]1O[C@@H]1O[C@H](CO)[C@H](O)[C@H](O)[C@H]1O (stereo partly shown) [Le^a]
- Relative KI: 0.22 ± 0.01 relative to KI of αMe-Man
